From US20050148534A1, “Small molecule compositions and methods for increasing drug efficiency using compositions thereof” (priority 2003, published 2005)

Columns and labels:
tubulin = assay: Fluorescence-based microtubule polymerization assay (MPA); format: biochemical; conditions: mean percentage of paclitaxel or vinblastine activity; 0.75-10 micromolar
Text: Drug-linker constructs may further be screened using functional assays predictive of biological activity. […] Tubulin assembly or inhibition thereof may be monitored by fluorescence using the CytoDYNAMIX Screen™ 10 kit available from Cytoskeleton (1830 S. Acoma St., Denver, Colo.). […] Emission is monitored at 405 nm with excitation at 360 nm. […] Tubulin assembly or inhibition may also be monitored by light scattering which is approximated by the apparent absorption at 350 nm. For paclitaxel drug conjugates BSA is employed to prevent aggregation and glycerol, which is a tubulin polymerization enhancer, is omitted from the kit to increase the signal to noise ratio.
The assay kit (#BK011) was purchased from Cytoskeleton (Denver, Colo.). The assays were carried out according to the manufacturer's instructions, except that 1 mg/ml BSA (Sigma #A3059) was included in all assays. […] Parent drugs and conjugates were tested at 0.75, 1.5, 3 and 10 micromolar final concentration and results represent a comparison of conjugate and parent drug curves obtained from the linear range of the dose responses.

TK2 = biological target: T1, TK2 (Homo sapiens, UniProt O00142); set-up: unit not given here; conditions: substrate activity; literature (Johansson et al.; Eriksson et al.; Wang et al.), source per Table 3; cited from earlier work
T1 sequence (O00142 34-265): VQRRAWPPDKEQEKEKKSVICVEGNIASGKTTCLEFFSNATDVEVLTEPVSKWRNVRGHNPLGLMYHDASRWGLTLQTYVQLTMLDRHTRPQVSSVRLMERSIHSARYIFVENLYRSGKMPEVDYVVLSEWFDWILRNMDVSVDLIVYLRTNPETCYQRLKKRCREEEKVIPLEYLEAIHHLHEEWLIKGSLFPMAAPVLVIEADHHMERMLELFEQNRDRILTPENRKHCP

[1] = biological target: deoxycytidine kinase (dCK) (Homo sapiens, UniProt P27707); conditions: cited from earlier work; for dCK: substrate activity, literature (Johansson et al.; Eriksson et al.; Wang et al.), source per Table 3
deoxycytidine kinase (dCK), sequence (P27707 whole entry, species assumed): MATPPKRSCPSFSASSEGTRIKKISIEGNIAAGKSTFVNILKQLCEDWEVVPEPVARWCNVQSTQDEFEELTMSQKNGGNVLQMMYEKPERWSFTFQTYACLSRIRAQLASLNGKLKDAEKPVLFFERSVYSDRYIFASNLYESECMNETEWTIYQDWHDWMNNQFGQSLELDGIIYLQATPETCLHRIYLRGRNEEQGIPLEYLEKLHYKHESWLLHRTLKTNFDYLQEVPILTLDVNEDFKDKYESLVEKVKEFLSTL

| Molecule | TK2 (TK2) | dCK [1] | further results |
| --- | --- | --- | --- |
| 4-deacetyl-3-de-(methoxycarbonyl)-vinblastin-3-yl-N-{N′-Boc-2-[2-[2-[2-ethoxy]ethoxy]ethoxy]ethylamino}-aminocarbonyl) [VBL-3Am-PEG(11)-NH(B)] | – | – | Ave. MPA Act (tubulin): B (B=60-100) |
| Nc1ccn([C@@H]2C[C@@H](O)[C@H](CO)O2)c(=O)n1 [β-L-dC] | 70 | – | – |
| Cc1cn([C@@H]2C[C@H](O)[C@@H](CO)O2)c(=O)[nH]c1=O [α-D-Thy] | 2.4 | – | – |
| CC[C@]1(O)C[C@@H]2CN(CCc3c([nH]c4ccccc34)[C@@](C(=O)OC)(c3cc4c(cc3OC)N(C)[C@H]3[C@@](O)(C(=O)NN)[C@H](O)[C@]5(CC)C=CCN6CC[C@]43[C@@H]65)C2)C1 [Desacetylvinblastine monohydrazine] | – | – | Ave. MPA Act (tubulin): C (C>100) |
| CC[C@]1(O)C[C@@H]2CN(CCc3c([nH]c4ccccc34)[C@@](C(=O)OC)(c3cc4c(cc3OC)N(C)[C@H]3[C@@](O)(C(=O)NCCCCCCCCCCCCNC(=O)OC(C)(C)C)[C@H](O)[C@]5(CC)C=CCN6CC[C@]43[C@@H]65)C2)C1 [VBL-3Am-ALK(12)-NH(B)] | – | – | Ave. MPA Act (tubulin): A (A<60) |
| CC(=O)O[C@@]12CO[C@@H]1C[C@H](O)[C@@]1(C)C(=O)[C@H](OC(=O)CCCCCCNC(=O)OCc3ccccc3)C3=C(C)[C@@H](OC(=O)[C@H](O)[C@@H](NC(=O)c4ccccc4)c4ccccc4)C[C@@](O)([C@@H](OC(=O)c4ccccc4)[C@H]21)C3(C)C [PXL-10Es-Alk(6)-NH(Z)] | – | – | Ave. MPA Act (tubulin): A (A<60) |
| C=CCOC(=O)O[C@@H](C(=O)O[C@H]1C[C@@]2(O)[C@@H](OC(=O)c3ccccc3)[C@@H]3[C@]4(OC(C)=O)CO[C@@H]4C[C@H](O)[C@@]3(C)C(=O)[C@H](OC(C)=O)C(=C1C)C2(C)C)[C@@H](NC(=O)c1ccccc1)c1ccccc1 [PXL-2′Alloc] | – | – | Ave. MPA Act (tubulin): A (A<60) |
| Cc1cn([C@H]2CC[C@@H](CO)O2)c(=O)[nH]c1=O [β-ddT(3′-deoxyThy), 3′-deoxyThy] | 3.2 | – | – |
| Nc1cn([C@@H]2O[C@H](CO)[C@@H](O)[C@H]2O)c(=O)[nH]c1=O [R2 = NH2, R4 = H, R3 = OH, 5-amino-uridine] | – | – | activity towards dCK [1]: 17% |
| Nc1nc(=O)n([C@H]2C[C@H](O)[C@@H](CO)O2)cc1-c1cccs1 [R2 = 2-thienyl, X = C] | 30 | 2 | – |
| CC(=O)O[C@H]1C(=O)[C@]2(C)[C@@H](OC(=O)NCCCCCCN)C[C@H]3OC[C@@]3(OC(C)=O)[C@H]2[C@H](OC(=O)c2ccccc2)[C@]2(O)C[C@H](OC(=O)[C@H](O)[C@@H](NC(=O)c3ccccc3)c3ccccc3)C(C)=C1C2(C)C [PXL-7Ca-ALK(6)-NH2] | – | – | Ave. MPA Act (tubulin): A (A<60) |
| Nc1nc(=O)n([C@H]2C[C@H](O)[C@@H](CO)O2)cc1Br [R2 = Br, X = C] | 40 | 20 | – |
| CC(=O)O[C@H]1C(=O)[C@]2(C)[C@@H](OC(=O)NCCCCCCn3c(=O)c(C)cn([C@@H]4C[C@H](O)[C@@H](CO)O4)c3=O)C[C@H]3OC[C@@]3(OC(C)=O)[C@H]2[C@H](OC(=O)c2ccccc2)[C@]2(O)C[C@H](OC(=O)[C@H](O)[C@@H](NC(=O)c3ccccc3)c3ccccc3)C(C)=C1C2(C)C [PXL-7Ca-ALK(6)-N3-αTHY] | – | – | Ave. MPA Act (tubulin): B (B=60-100) |
| Nc1ccn(C2CC(O)C(CO)O2)c(=O)n1 [α-L-dC] | 0.4 | – | – |
| Nc1nc(=O)n([C@H]2C[C@H](O)[C@@H](CO)O2)cc1C1CC1 [R2 = cyclopropyl, X = C] | <1 | 20 | – |
| CC(=O)O[C@H]1C(=O)[C@]2(C)[C@@H](OC(=O)NCCCCCCn3c(=O)c(C)cn([C@H]4C[C@H](O)[C@@H](COP(=O)(O)O)O4)c3=O)C[C@H]3OC[C@@]3(OC(C)=O)[C@H]2[C@H](OC(=O)c2ccccc2)[C@]2(O)C[C@H](OC(=O)[C@H](O)[C@@H](NC(=O)c3ccccc3)c3ccccc3)C(C)=C1C2(C)C [PXL-7Ca-ALK(6)-N3-PhTHY] | – | – | Ave. MPA Act (tubulin): B (B=60-100) |
| O=c1[nH]c(=O)n([C@@H]2O[C@H](CO)[C@@H](O)[C@@H]2O)cc1C1CC1 [R2 = cyclopropyl, R5 = OH] | 15 | – | – |
| Nc1nc(=O)n([C@H]2C[C@H](O)[C@@H](CO)O2)cc1-c1ccncc1 [R2 = 4-pyridyl, X = C] | 2 | 5 | – |
| Nc1ccn([C@H]2CC[C@@H](CO)O2)c(=O)n1 [β-ddC(2′,3′-dideoxyC), 2′,3′-dideoxyC] | – | 7.1 | – |
| CC[C@]1(O)C[C@@H]2CN(CCc3c([nH]c4ccccc34)[C@@](C(=O)OC)(c3cc4c(cc3OC)N(C)[C@H]3[C@@](O)(C(=O)NCCCCCCCCN)[C@H](O)[C@]5(CC)C=CCN6CC[C@]43[C@@H]65)C2)C1 [VBL-3Am-ALK(8)-NH2] | – | – | Ave. MPA Act (tubulin): B (B=60-100) |
| Nc1ccn([C@@H]2O[C@H](CO)[C@@H](O)[C@H]2F)c(=O)n1 [R4 = F, R5 = H, R3 = OH] | 30 | 300 | – |
| Nc1nc(=O)n([C@H]2C[C@H](O)[C@@H](CO)O2)cc1-c1ccco1 [R2 = 2-furyl, X = C] | 10 | 3 | – |
| Nc1nc(Cl)nc2c1ncn2C1CC(CO)C(CO)O1 (centres unmarked) | – | 40 | – |

| Molecule | TK2 (TK2) | dCK [1] | further results |
| --- | --- | --- | --- |
| Nc1nc(=O)n([C@H]2C[C@H](O)[C@@H](CO)O2)cc1F [R2 = F, X = C] | 90 | 20 | – |
| Cc1cn(C2CCC(CO)O2)c(=O)[nH]c1=O (stereo not drawn) [α-ddT] | 9.8 | – | – |
| CC[C@]1(O)C[C@@H]2CN(CCc3c([nH]c4ccccc34)[C@@](C(=O)OC)(c3cc4c(cc3OC)N(C)[C@H]3[C@@](O)(C(=O)NCCCCCCN)[C@H](O)[C@]5(CC)C=CCN6CC[C@]43[C@@H]65)C2)C1 [VBL-3Am-ALK(6)-NH2] | – | – | Ave. MPA Act (tubulin): C (C>100) |
| O=c1[nH]c(=O)n([C@@H]2O[C@H](CO)[C@@H](O)[C@@H]2O)cc1-c1cccs1 [R2 = 2-thienyl, R5 = OH] | 6 | – | – |
| CC(=O)O[C@H]1C(=O)[C@]2(C)[C@@H](OC(=O)CCCCCN)C[C@H]3OC[C@@]3(OC(C)=O)[C@H]2[C@H](OC(=O)c2ccccc2)[C@]2(O)C[C@H](OC(=O)[C@H](O)[C@@H](NC(=O)c3ccccc3)c3ccccc3)C(C)=C1C2(C)C [PXL-7Es-ALK(5)-NH2] | – | – | Ave. MPA Act (tubulin): A (A<60) |
| CC[C@]1(O)C[C@@H]2CN(CCc3c([nH]c4ccccc34)[C@@](C(=O)OC)(c3cc4c(cc3OC)N(C)[C@H]3[C@@](O)(C(=O)NCCCCCCCCCCCCN)[C@H](O)[C@]5(CC)C=CCN6CC[C@]43[C@@H]65)C2)C1 [VBL-3Am-ALK(12)-NH2] | – | – | Ave. MPA Act (tubulin): B (B=60-100) |
| CC[C@]1(O)C[C@@H]2CN(CCc3c([nH]c4ccccc34)[C@@](C(=O)OC)(c3cc4c(cc3OC)N(C)[C@H]3[C@@](O)(C(=O)NCCCCCCn5c(=O)c(C)cn([C@H]6C[C@H](O)[C@@H](COP(=O)(O)O)O6)c5=O)[C@H](O)[C@]5(CC)C=CCN6CC[C@]43[C@@H]65)C2)C1 [VBL-3Am-ALK(6)-N3-PhTHY] | – | – | Ave. MPA Act (tubulin): C (C>100) |
| Nc1nc(=O)n([C@H]2C[C@H](O)[C@@H](CO)O2)cc1-c1cccnc1 [R2 = 3-pyridyl, X = C] | <1 | 4 | – |
| Nc1ccn([C@H]2C[C@H](F)[C@@H](CO)O2)c(=O)n1 [R4 = H, R5 = H, R3 = F] | <1 | 60 | – |
| CC#Cc1cn([C@@H]2O[C@H](CO)[C@@H](O)[C@@H]2O)c(=O)[nH]c1=O | 30 | – | – |
| Nc1nc(=O)n([C@H]2C[C@H](O)[C@@H](CO)O2)cc1-c1ccsc1 [R2 = 3-thienyl, X = C] | 30 | <1 | – |
| Nc1ccn([C@@H]2C[C@H](O)[C@@H](CO)O2)c(=O)n1 [α-D-dC] | 1.8 | – | – |
| Cc1cn([C@@H]2O[C@H](CO)[C@@H](O)[C@@H]2O)c(=O)[nH]c1=O [R2 = CH3, R5 = OH (araT), araT] | 60 | – | – |
| Cc1cn([C@@H]2C[C@@H](O)[C@H](CO)O2)c(=O)[nH]c1=O [β-L-Thy] | 60 | 0.8 | – |
| Nc1ccn([C@H]2CC[C@@H](CO)O2)c(=O)n1 [R4 = H, R5 = H, R3 = H (ddCy, Zalcitabine)] | <1 | 30 | – |
| Nc1nc(=O)n([C@H]2C[C@H](O)[C@@H](CO)O2)cc1-c1ccccn1 [R2 = 2-pyridyl, X = C] | 7 | <1 | – |
| Cc1cn([C@H]2C[C@H](O)[C@@H](CO)O2)c(=O)nc1N [R2 = CH3, X = C] | 40 | – | – |
| O=c1ccn([C@@H]2O[C@H](CO)[C@@H](O)[C@H]2O)c(=O)[nH]1 [R2 = H, R5 = OH (araU), araU] | 20 | – | – |
| Nc1ccn([C@@H]2O[C@H](CO)[C@@H](O)[C@H]2O)c(=O)n1 [R4 = OH, R5 = H, R3 = OH] | <1 | – | – |
| Nc1nc(=O)n([C@H]2C[C@H](O)[C@@H](CO)O2)cc1-c1ccoc1 [R2 = 3-furyl, X = C] | 50 | <1 | – |
| Cc1cn([C@H]2C[C@@H](O)[C@H](CO)O2)c(=O)[nH]c1=O [α-L-Thy] | 1.5 | – | – |
| C[C@H]1C=C[C@@H](CO)O1 | <1 | 4 | – |
| (±)-Cytallene | <1 | 20 | – |
